The nature of data set [1]: Toxicity against Balb/c mouse xenografted with human MCF7 Tam1 cells assessed as changes in body weight at 10 to 30 mg/kg, po qd for 21 days. The class given is organism-based. Particulars: in vivo, 504 h, dose 10-30 mg/kg, time 21 day.
Data set [2] can be described thus: AUC(0 to t) in Sprague-Dawley rat plasma at 10 mg/kg, po measured for 24 hrs by LC-MS/MS analysis. The format is ADME, organism-based.
A short description of data set [3]: C0 in Sprague-Dawley rat plasma at 2 mg/kg, iv by LC-MS/MS analysis. The format is ADME, organism-based.
Data set [4] concerns BT-474. In words: Antiproliferative activity against human BT-474 cells assessed as reduction in cell viability.
The test system of data set [5] is MCF7. Description: Antiproliferative activity against human MCF7 cells assessed as reduction in cell viability incubated for 6 days by CellTiter-Glo reagent based luminescence analysis. The conditions noted are these: mcf7. (Cellular ATP, detected with luciferase, serves as a proxy for viable cell number.)
Data set [6] can be described thus: Clearance in Sprague-Dawley rat plasma at 2 mg/kg, iv measured for 24 hrs by LC-MS/MS analysis. The class given is ADME, organism-based.
Data set [7] is described as follows: AUC(0 to t) in Sprague-Dawley rat brain at 20 mg/kg, po measured for 10 hrs by LC-MS/MS analysis. The format is ADME, organism-based. The conditions noted are these: in vivo.
Data set [8] concerns CAMA-1. Description: Antiproliferative activity against human CAMA-1 cells assessed as reduction in cell viability.
Data set [9] in a line: Cmax in Sprague-Dawley rat plasma at 20 mg/kg, po measured for 10 hrs by LC-MS/MS analysis. The format is ADME, organism-based.
A short description of data set [10]: Cmax in Sprague-Dawley rat brain at 20 mg/kg, po measured for 10 hrs by LC-MS/MS analysis. The format is ADME, organism-based.
The nature of data set [11]: Tmax in Sprague-Dawley rat plasma at 20 mg/kg, po measured for 10 hrs by LC-MS/MS analysis. The format is ADME, organism-based.
The nature of data set [12]: Oral bioavailability in Sprague-Dawley rat at 10 mg/kg measured for 24 hrs by LC-MS/MS analysis. The format is ADME, organism-based. The conditions noted are these: in vivo.
Data set [13] can be described thus: Tmax in Sprague-Dawley rat brain at 20 mg/kg, po measured for 10 hrs by LC-MS/MS analysis. The format is ADME, organism-based.
A short description of data set [14]: Toxicity in Sprague-Dawley rat assessed as thickened endometrium in uterus at 10 mg/kg, po qd for 3 days by Hematoxylin-Eosin staining based analysis. The class given is organism-based. The conditions noted are these: in vivo, 72 h, time 3 day.
A short description of data set [15]: Half life in Sprague-Dawley rat brain at 20 mg/kg, po measured for 10 hrs by LC-MS/MS analysis. The format is ADME, organism-based.
A short description of data set [16]: Half life in Sprague-Dawley rat plasma at 20 mg/kg, po measured for 10 hrs by LC-MS/MS analysis. The class given is ADME, organism-based.
The nature of data set [17]: AUC(0 to t) in Sprague-Dawley rat plasma at 2 mg/kg, iv measured for 24 hrs by LC-MS/MS analysis. The class given is ADME, organism-based.
Data set [18] in a line: Antiproliferative activity against endocrine-resistant human MCF7 Tam1 cells assessed as inhibition of cell growth. The conditions noted are these: Tamoxifen-resistant MCF7.
Data set [19] can be described thus: animal or person. Particulars: Homo sapiens, Tamoxifen-resistant MCF7, po, 504 h, read-out: TGI.
The subject of data set [20] is MCF7. In words: Antiproliferative activity against human MCF7 cells harboring ER-alpha Y537S mutant assessed as inhibition of cell growth.
Data set [21] is described as follows: MRT in Sprague-Dawley rat plasma at 20 mg/kg, po measured for 10 hrs by LC-MS/MS analysis. The class given is ADME, organism-based.
Data set [22] can be described thus: MRT in Sprague-Dawley rat plasma at 2 mg/kg, iv measured for 24 hrs by LC-MS/MS analysis. The format is ADME, organism-based.
Data set [23] can be described thus: AUC(0 to t) in Sprague-Dawley rat plasma at 20 mg/kg, po measured for 10 hrs by LC-MS/MS analysis. The format is ADME, organism-based.
Data set [24] in a line: Half life in Sprague-Dawley rat plasma at 2 mg/kg, iv measured for 24 hrs by LC-MS/MS analysis. The class given is ADME, organism-based.
Data set [25] can be described thus: Tmax in Sprague-Dawley rat plasma at 10 mg/kg, po measured for 24 hrs by LC-MS/MS analysis. The class given is ADME, organism-based.
The nature of data set [26]: MRT in Sprague-Dawley rat brain at 20 mg/kg, po measured for 10 hrs by LC-MS/MS analysis. The class given is ADME, organism-based.
The nature of data set [27]: Volume of distribution at steady state in Sprague-Dawley rat plasma at 2 mg/kg, iv measured for 24 hrs by LC-MS/MS analysis. The format is ADME, organism-based. Particulars: read-out: Vdss.
Data set [28] can be described thus: animal or person. The conditions noted are these: Homo sapiens, Tamoxifen-resistant MCF7, po, 504 h, read-out: TGI. The source holds these as a separate data set.
Data set [29] is described as follows: Ratio of drug level in brain to plasma in Sprague-Dawley rat at 20 mg/kg, po measured for 10 hrs by LC-MS/MS analysis. The conditions noted are these: brain and plasma. The format is ADME, organism-based.
Data set [30] can be described thus: Half life in Sprague-Dawley rat plasma at 10 mg/kg, po measured for 24 hrs by LC-MS/MS analysis. The format is ADME, organism-based.
The subject of data set [31] is T47D. Description: Antiproliferative activity against human T47D cells assessed as reduction in cell viability.
Data set [32] in a line: Cmax in Sprague-Dawley rat plasma at 10 mg/kg, po measured for 24 hrs by LC-MS/MS analysis. The class given is ADME, organism-based.
In data set [33] the test system is MDA-MB-361. Description: Antiproliferative activity against human MDA-MB-361 cells assessed as reduction in cell viability.
Data set [34] in a line: MRT in Sprague-Dawley rat plasma at 10 mg/kg, po measured for 24 hrs by LC-MS/MS analysis. The format is ADME, organism-based.
A short description of data set [35]: Estrogenic like activity in Sprague-Dawley rat assessed as increase in ratio of uterine wet weight to body weight at 60 mg/kg, po qd for 3 days relative to control. The class given is toxicity, organism-based. Particulars: in vivo, 72 h, time 3 day.
Data set [36] can be described thus: Toxicity in Sprague-Dawley rat assessed as thickened endometrium in uterus at 60 mg/kg, po qd for 3 days by Hematoxylin-Eosin staining based analysis. The format is organism-based. The conditions noted are these: in vivo, 72 h, time 3 day.
Data set [37] can be described thus: Ratio of drug level in brain to plasma in mouse. The format is ADME. The conditions noted are these: brain and plasma.

A word on the AUC(0-t): it is the area under the concentration-time curve up to a stated or last time point. A low value points to low exposure. In general, IC50 refers to the concentration that inhibits the measured activity by half. By clearance is commonly meant a measure of how efficiently the substance is removed, as volume per time. Broadly, the Cmax is the maximum level reached in the sampled fluid or tissue. Broadly, the Tmax is the time from dosing to the highest level. As a reminder, the bioavailability is dose-corrected exposure relative to a reference, in per cent. A higher bioavailability goes with much systemic uptake. One may read the half-life as the time in which the quantity being followed falls by half. High values mean slow decline, low ones rapid decline. By MRT is commonly meant a mean duration of stay, worked out from the concentration-time curve. In general, Kp refers to the ratio of the level in a tissue or fluid to that in plasma or blood. `COc1cc(F)ccc1[C@H]1CSc2cc(O)ccc2[C@H]1c1ccc(OCCN2CC(CF)C2)cc1`: the Activity result in data set [1] and in data set [14] was “Non-toxic” each time. Moreover, the AUC(0-t) at 24 h in data set [2] was 1360 ng·h/mL; in data set [17], 1370 ng·h/mL. Further, in data set [3], the C0 was determined as 741 ng/mL. In addition, the IC50 came out at 4 nM in data set [4]; 0.25 nM in data set [5]; 4 nM in data set [8]; 5.37 nM in [18]; 10.6 nM in [20]; 4 nM in data set [31]. In addition, the IC50 in data set [33] is roughly 15 nM. In addition, the clearance in [6] was determined as 23.3 mL/min/kg. The AUCt in data set [7] was determined as 11170 ng·h/g. Further, the Cmax stood at 509 ng/mL in [9], 1470 ng/g in data set [10] and 198 ng/mL in data set [32]. In addition, the Tmax in [11] is 6 h; in data set [13] it was 6 h; in [25] it was 3 h. The bioavailability in [12] was determined as 19.9%. Moreover, the half-life was 7 h in data set [15], 5.6 h in data set [16], 4 h in data set [24] and 8.9 h in data set [30]. For the same compound, in [19], the inhibition in vivo at 30 mg/kg stood at 64.5%. The MRT was determined as 10.6 h in data set [21], 5.24 h in data set [22], 12.4 h in data set [26] and 13.4 h in [34]. Also, the AUC(0-t) at 10 h in data set [23] was 3660 ng·h/mL. Further, the Vd in data set [27] came to 6.6 L/kg. In data set [28], the inhibition in vivo at 10 mg/kg stood at 26.8%. The Kp at 10 h in [29] was 3.05.

Regarding `CC/C(=C(\c1ccc(O)cc1)c1ccc(OCCN(C)C)cc1)c1ccccc1` [AFIMOXIFENE], the “fold change (FC)” value in data set [35] is 2. The Activity result in [36] is “Toxic”.

Consider `CCNCCc1ccc(CN(CC)c2cc(OC)ccc2[C@@H]2CCc3cc(O)ccc3C2)cc1` [ELACESTRANT], for which the Kp in data set [37] amounted to 0.36.

The values above are taken from ChEMBL document CHEMBL6083291, “Discovery of Thiochroman Derivatives as Potent, Oral Selective Estrogen Receptor Degraders and Antagonists for the Treatment of Endocrine-Resistant Breast Cancer” (J Med Chem, 2024).
